Reference: ChEMBL document CHEMBL1142870, “Antitumor potential of crown ethers: structure-activity relationships, cell cycle disturbances, and cell death studies of a series of ionophores” (J Med Chem, 2007)

Legend:
SW-620 = experiment: Antiproliferative activity against SW620 cells after 72 hrs by MTT assay; assay type: functional, cell-based; settings: Homo sapiens, SW-620, 72 h
MCF7 = experiment: Antiproliferative activity against MCF7 cells after 72 hrs by MTT assay; assay type: functional, cell-based; settings: Homo sapiens, MCF7, 72 h
NCI-H460 = experiment: Antiproliferative activity against H460 cells after 72 hrs by MTT assay; assay type: functional, cell-based; settings: Homo sapiens, NCI-H460, 72 h
MIA PaCa-2 [1] = experiment: Antiproliferative activity against MiaPaCa2 cells after 72 hrs by MTT assay; assay type: functional, cell-based; settings: Homo sapiens, MIA PaCa-2, 72 h
HeLa = experiment: Antiproliferative activity against HeLa cells after 72 hrs by MTT assay; assay type: functional, cell-based; settings: Homo sapiens
MIA PaCa-2 [2] = experiment: Cell cycle arrest in MiaPaCa2 cells by accumulation at G1/G0 phase at 10 nM after 24 hrs; assay type: functional, Homo sapiens
MIA PaCa-2 [3] = experiment: Cell cycle arrest in MiaPaCa2 cells by accumulation at G1/G0 phase at 10 nM after 36 hrs; assay type: functional, Homo sapiens
MIA PaCa-2 [4] = experiment: Cell cycle arrest in MiaPaCa2 cells by accumulation at SubG1 phase at 10 nM after 48 hrs; assay type: functional, Homo sapiens
MIA PaCa-2 [5] = experiment: Cell cycle arrest at MiaPaCa2 cells by accumulation at G2/M phase at 10 nM after 24 hrs; assay type: functional, Homo sapiens
MIA PaCa-2 [6] = experiment: Cell cycle arrest at MiaPaCa2 cells by accumulation at S phase at 10 nM after 48 hrs; assay type: functional, Homo sapiens
MIA PaCa-2 [7] = experiment: Cell cycle arrest in MiaPaCa2 cells by accumulation at SubG1 phase at 10 nM after 36 hrs; assay type: functional, Homo sapiens
MIA PaCa-2 [8] = experiment: Cell cycle arrest in MiaPaCa2 cells by accumulation at G1/G0 phase at 10 nM after 48 hrs; assay type: functional, Homo sapiens
MIA PaCa-2 [9] = experiment: Cell cycle arrest at MiaPaCa2 cells by accumulation at S phase at 10 nM after 36 hrs; assay type: functional, Homo sapiens
MIA PaCa-2 [10] = experiment: Cell cycle arrest at MiaPaCa2 cells by accumulation at G2/M phase at 10 nM after 48 hrs; assay type: functional, Homo sapiens
MIA PaCa-2 [11] = experiment: Cell cycle arrest in MiaPaCa2 cells by accumulation at SubG1 phase at 10 nM after 24 hrs; assay type: functional, Homo sapiens
MIA PaCa-2 [12] = experiment: Cell cycle arrest at MiaPaCa2 cells by accumulation at S phase at 10 nM after 24 hrs; assay type: functional, Homo sapiens
MIA PaCa-2 [13] = experiment: Cell cycle arrest at MiaPaCa2 cells by accumulation at G2/M phase at 10 nM after 36 hrs; assay type: functional, Homo sapiens
MIA PaCa-2 [14] = experiment: Cell cycle arrest in MiaPaCa2 cells by accumulation at G1 phase at 10 nM; assay type: functional, cell-based; settings: Homo sapiens, TDE = time-dependent effect

SMILES | IC50 (SW-620) | IC50 (MCF7) | IC50 (NCI-H460) | IC50 (MIA PaCa-2 [1]) | IC50 (HeLa) | also measured
c1ccc(CN2CCOCCOCCOCCOCC2)cc1 | > 100 µM | > 100 µM | > 100 µM | > 100 µM | > 100 µM | 
C1CCC2OCCOCCOC3CCCCC3OCCOCCOC2C1 (stereo not drawn) [ICOSAHYDRODIBENZO[B,K][1,4,7,10,13,16]HEXAOXACYCLOOCTADECINE] | 7 µM | 36 µM | 16 µM | 16 µM | 25 µM | 
CC(C)(C)c1cc(O)c(OCCOCCOc2c(O)cc(C(C)(C)C)cc2C(C)(C)C)c(C(C)(C)C)c1 | 19 µM | 29 µM | 8 µM | 18 µM | 11 µM | 
O=C(NCC(=O)N1CCOCCOCCN(C(=O)CNC(=O)OCc2ccccc2)CCOCCOCC1)OCc1ccccc1 | 40 µM | 44 µM | > 100 µM | 71 µM | 37 µM | 
c1ccc2c(c1)OCCOCCOCCOCCOc1ccccc1OCCOCCOCCOCCO2 | 17 µM | 30 µM | 9 µM | 7 µM | 11 µM | 
OCCN(CCO)Cc1ccccc1 | > 100 µM | > 100 µM | > 100 µM | > 100 µM | > 100 µM | 
c1ccc(CN2CCOCCOCCN(Cc3ccccc3)CCOCCOCC2)cc1 | 6 µM | 25 µM | 25 µM | 23 µM | 14 µM | 
CC(C)[C@@H]1NC(=O)[C@H](C)OC(=O)[C@@H](C(C)C)NC(=O)[C@@H](C(C)C)OC(=O)[C@H](C(C)C)NC(=O)[C@H](C)OC(=O)[C@@H](C(C)C)NC(=O)[C@@H](C(C)C)OC(=O)[C@H](C(C)C)NC(=O)[C@H](C)OC(=O)[C@@H](C(C)C)NC(=O)[C@@H](C(C)C)OC1=O [VALINOMYCIN] | 0.0001 µM | 0.5 µM | 0.001 µM | 0.001 µM | 0.001 µM | Activity (MIA PaCa-2 [2]): 60%; Activity (MIA PaCa-2 [3]): 63%; Activity (MIA PaCa-2 [4]): 49%; Activity (MIA PaCa-2 [5]): 24%; Activity (MIA PaCa-2 [6]): 19%; Activity (MIA PaCa-2 [7]): 42%; Activity (MIA PaCa-2 [8]): 62%; Activity (MIA PaCa-2 [9]): 12%; Activity (MIA PaCa-2 [10]): 18%; Activity (MIA PaCa-2 [11]): 35%; Activity (MIA PaCa-2 [12]): 24%; Activity (MIA PaCa-2 [13]): 23%; Activity (MIA PaCa-2 [14]): tde
CC(C)(C)c1cc2c(c(C(C)(C)C)c1)OCCOCCOc1c(cc(C(C)(C)C)cc1C(C)(C)C)OCCOCCO2 | 19 µM | 8 µM | 19 µM | 15 µM | 10 µM | 
CC(C)(C)c1ccc(O)c(O)c1 | 22 µM | 23 µM | 22 µM | 20 µM | 24 µM | 
c1ccc(CNCCOCCOCCNCc2ccccc2)cc1 | 39 µM | > 100 µM | 31 µM | > 100 µM | 24 µM | 
COC(=O)[C@H](NC(=O)CN1CCOCCOCCN(CC(=O)N[C@@H](C(=O)OC)c2ccccc2)CCOCCOCC1)c1ccccc1 | ≥ 100 µM | > 100 µM | > 100 µM | > 100 µM | > 100 µM | 
c1ccc2c(c1)OCCOCCOc1ccccc1OCCOCCO2 | 17 µM | 49 µM | 28 µM | 28 µM | 17 µM | 
c1ccc2c(c1)OCCOCCOCCOc1ccccc1OCCOCCOCCO2 | 72 µM | > 100 µM | 24 µM | 32 µM | 21 µM | 
